Results: the supplement of paper PMC10307832

Each cell line was assayed with CC1(C)CCC(CN2CCN(c3ccc(C(=O)NS(=O)(=O)c4ccc(NCC5CCOCC5)c([N+](=O)[O-])c4)c(Oc4cnc5[nH]ccc5c4)c3)CC2)=C(c2ccc(Cl)cc2)C1 [Venetoclax] + COc1cccc2cc(-c3nc([C@H]4CC[C@H](C(=O)O)CC4)n4ncnc(N)c34)[nH]c12 [OSI-027] (partner 0.5 µM) (assay: relative viability (nuclei count vs DMSO), 5 days (fraction); higher = more cells survive). Settings: first compound 0.01 µM.
Method in brief: (§1)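 Lung cancer cell lines were pin-tool dosed in 1536-well plates on the day after seeding, with either a lone drug or a fixed anchor-drug dose plus five library-drug doses (not always all listed) in √10 steps. Nuclei were counted on 4× images after 5 days. Relative viability is the ratio of treated-well to vehicle-well nuclei counts, with each value a median of duplicate plates.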

Cell Line | relative viability
NCI-H522 | 0.631
NCI-H1623 | 0.419
PC-14 | 0.735
NCI-H1666 | 0.699
NCI-H1755 | 0.73
NCI-H2023 | 0.44
EPLC-272H | 0.284
LCLC-97TM1 | 0.519
PC-3 [JPC-3] | 0.676
LOU-NH91 | 0.674
NCI-H647 | 0.69
NCI-H23 | 0.592
EMC-BAC-2 | 0.405
NCI-H2126 | 0.691
HCC-44 | 0.609
NCI-H1734 | 0.616
NCI-H650 | 0.533

Cell Line | relative viability
LK-2 | 0.317
NCI-H2228 | 0.423
NCI-H2342 | 0.767
SK-MES-1 | 0.61
HARA | 0.427
COR-L23 | 0.661
COR-L 105 | 0.71
LC-2-ad | 1.01
LXF-289 | 0.753
ChaGo-K-1 | 0.716
NCI-H2170 | 0.597
NCI-H322M | 0.667
HCC-78 | 0.4
SW 900 | 0.641
NCI-H1648 | 0.287
NCI-H596 | 0.704
NCI-H1563 | 0.836

Same assay, conditions: first compound 0.03162 µM

Cell Line | relative viability
NCI-H522 | 0.759
NCI-H1623 | 0.424
PC-14 | 0.875
NCI-H1666 | 0.843
NCI-H1755 | 0.74
NCI-H2023 | 0.363
EPLC-272H | 0.294
LCLC-97TM1 | 0.704
PC-3 [JPC-3] | 0.719
LOU-NH91 | 0.762
NCI-H647 | 0.769
NCI-H23 | 0.625
EMC-BAC-2 | 0.441
NCI-H2126 | 0.794
HCC-44 | 0.652
NCI-H1734 | 0.568
NCI-H650 | 0.552

Cell Line | relative viability
LK-2 | 0.204
NCI-H2228 | 0.545
NCI-H2342 | 0.708
SK-MES-1 | 0.626
HARA | 0.571
COR-L23 | 0.839
COR-L 105 | 0.737
LC-2-ad | 0.934
LXF-289 | 0.857
ChaGo-K-1 | 0.634
NCI-H2170 | 0.802
NCI-H322M | 0.575
HCC-78 | 0.387
SW 900 | 0.548
NCI-H1648 | 0.24
NCI-H596 | 0.748
NCI-H1563 | 0.776

Same assay, conditions: first compound 0.1 µM

Cell Line | relative viability
NCI-H522 | 0.684
NCI-H1623 | 0.414
PC-14 | 0.696
NCI-H1666 | 0.839
NCI-H1755 | 0.68
NCI-H2023 | 0.313
EPLC-272H | 0.281
LCLC-97TM1 | 0.556
PC-3 [JPC-3] | 0.779
LOU-NH91 | 0.726
NCI-H647 | 0.625
NCI-H23 | 0.525
EMC-BAC-2 | 0.371
NCI-H2126 | 0.719
HCC-44 | 0.539
NCI-H1734 | 0.515
NCI-H650 | 0.561

Cell Line | relative viability
LK-2 | 0.22
NCI-H2228 | 0.62
NCI-H2342 | 0.554
SK-MES-1 | 0.599
HARA | 0.452
COR-L23 | 0.713
COR-L 105 | 0.552
LC-2-ad | 0.72
LXF-289 | 0.881
ChaGo-K-1 | 0.516
NCI-H2170 | 0.552
NCI-H322M | 0.605
HCC-78 | 0.35
SW 900 | 0.484
NCI-H1648 | 0.313
NCI-H596 | 0.694
NCI-H1563 | 0.747

Same assay, conditions: first compound 0.3162 µM

Cell Line | relative viability
NCI-H522 | 0.824
NCI-H1623 | 0.444
PC-14 | 0.855
NCI-H1666 | 0.733
NCI-H1755 | 0.757
NCI-H2023 | 0.427
EPLC-272H | 0.292
LCLC-97TM1 | 0.478
PC-3 [JPC-3] | 0.791
LOU-NH91 | 0.755
NCI-H647 | 0.589
NCI-H23 | 0.683
EMC-BAC-2 | 0.403
NCI-H2126 | 0.692
HCC-44 | 0.589
NCI-H1734 | 0.57
NCI-H650 | 0.528

Cell Line | relative viability
LK-2 | 0.22
NCI-H2228 | 0.546
NCI-H2342 | 0.715
SK-MES-1 | 0.572
HARA | 0.427
COR-L23 | 0.687
COR-L 105 | 0.707
LC-2-ad | 0.905
LXF-289 | 0.771
ChaGo-K-1 | 0.552
NCI-H2170 | 0.713
NCI-H322M | 0.564
HCC-78 | 0.347
SW 900 | 0.525
NCI-H1648 | 0.265
NCI-H596 | 0.748
NCI-H1563 | 0.773

Same assay, conditions: first compound 1 µM

Cell Line | relative viability
NCI-H522 | 0.6
NCI-H1623 | 0.424
PC-14 | 0.722
NCI-H1666 | 0.784
NCI-H1755 | 0.667
NCI-H2023 | 0.312
EPLC-272H | 0.3
LCLC-97TM1 | 0.465
PC-3 [JPC-3] | 0.608
LOU-NH91 | 0.673
NCI-H647 | 0.509
NCI-H23 | 0.439
EMC-BAC-2 | 0.353
NCI-H2126 | 0.636
HCC-44 | 0.477
NCI-H1734 | 0.542
NCI-H650 | 0.459

Cell Line | relative viability
LK-2 | 0.161
NCI-H2228 | 0.396
NCI-H2342 | 0.665
SK-MES-1 | 0.518
HARA | 0.362
COR-L23 | 0.696
COR-L 105 | 0.73
LC-2-ad | 0.845
LXF-289 | 0.623
ChaGo-K-1 | 0.479
NCI-H2170 | 0.633
NCI-H322M | 0.48
HCC-78 | 0.371
SW 900 | 0.604
NCI-H1648 | 0.256
NCI-H596 | 0.587
NCI-H1563 | 0.707

The cell lines below were run with CC1(C)CCC(CN2CCN(c3ccc(C(=O)NS(=O)(=O)c4ccc(NCC5CCOCC5)c([N+](=O)[O-])c4)c(Oc4cnc5[nH]ccc5c4)c3)CC2)=C(c2ccc(Cl)cc2)C1 [Venetoclax] + CC(=O)c1c(C)c2cnc(Nc3ccc(N4CCNCC4)cn3)nc2n(C2CCCC2)c1=O [Palbociclib] (partner 0.5 µM) in the same assay as above. Settings: first compound 0.01 µM.
Method in brief: as §1

Cell Line | relative viability
NCI-H522 | 0.929
PC-14 | 0.521
NCI-H1666 | 0.625
NCI-H1755 | 0.463
NCI-H2023 | 0.382
EPLC-272H | 0.351
LCLC-97TM1 | 0.231
PC-3 [JPC-3] | 0.561
LOU-NH91 | 0.504
NCI-H647 | 0.504
NCI-H23 | 0.514
EMC-BAC-2 | 0.5
NCI-H2126 | 0.368
HCC-44 | 0.928
NCI-H1734 | 0.331
NCI-H650 | 0.319
LK-2 | 0.681
NCI-H2228 | 0.708
NCI-H2342 | 0.564
SK-MES-1 | 0.329
HARA | 0.289
COR-L23 | 0.326
COR-L 105 | 0.414
LC-2-ad | 0.456
LXF-289 | 0.624
ChaGo-K-1 | 0.992
NCI-H2170 | 0.378
NCI-H322M | 0.489
HCC-78 | 0.456
SW 900 | 0.506

Same assay, conditions: first compound 0.03162 µM

Cell Line | relative viability
NCI-H522 | 0.95
PC-14 | 0.514
NCI-H1666 | 0.656
NCI-H1755 | 0.469
NCI-H2023 | 0.338
EPLC-272H | 0.298
LCLC-97TM1 | 0.217
PC-3 [JPC-3] | 0.533
LOU-NH91 | 0.546
NCI-H647 | 0.488
NCI-H23 | 0.598
EMC-BAC-2 | 0.555
NCI-H2126 | 0.34
HCC-44 | 0.954
NCI-H1734 | 0.383
NCI-H650 | 0.387

Cell Line | relative viability
LK-2 | 0.682
NCI-H2228 | 0.776
NCI-H2342 | 0.491
SK-MES-1 | 0.336
HARA | 0.279
COR-L23 | 0.283
COR-L 105 | 0.399
LC-2-ad | 0.532
LXF-289 | 0.592
ChaGo-K-1 | 0.986
NCI-H2170 | 0.412
NCI-H322M | 0.487
HCC-78 | 0.534
SW 900 | 0.516
NCI-H1648 | 0.283

Same assay, conditions: first compound 0.1 µM

Cell Line | relative viability
NCI-H522 | 0.925
PC-14 | 0.546
NCI-H1666 | 0.631
NCI-H1755 | 0.481
NCI-H2023 | 0.349
EPLC-272H | 0.345
LCLC-97TM1 | 0.202
PC-3 [JPC-3] | 0.583
LOU-NH91 | 0.505
NCI-H647 | 0.34
NCI-H23 | 0.495
EMC-BAC-2 | 0.533
NCI-H2126 | 0.363
HCC-44 | 0.934
NCI-H1734 | 0.346
NCI-H650 | 0.345
LK-2 | 0.815
NCI-H2228 | 0.566
NCI-H2342 | 0.56
SK-MES-1 | 0.327
COR-L23 | 0.184
COR-L 105 | 0.384
LC-2-ad | 0.465
LXF-289 | 0.631
ChaGo-K-1 | 0.867
NCI-H2170 | 0.389
NCI-H322M | 0.389
HCC-78 | 0.437
SW 900 | 0.497
NCI-H1648 | 0.255

Same assay, conditions: first compound 0.3162 µM

Cell Line | relative viability
NCI-H522 | 0.816
PC-14 | 0.574
NCI-H1666 | 0.627
NCI-H1755 | 0.461
NCI-H2023 | 0.329
EPLC-272H | 0.338
LCLC-97TM1 | 0.208
PC-3 [JPC-3] | 0.558
LOU-NH91 | 0.516
NCI-H647 | 0.365
NCI-H23 | 0.491
EMC-BAC-2 | 0.541
NCI-H2126 | 0.374
HCC-44 | 0.899
NCI-H1734 | 0.394
NCI-H650 | 0.366

Cell Line | relative viability
LK-2 | 0.65
NCI-H2228 | 0.687
NCI-H2342 | 0.508
SK-MES-1 | 0.326
HARA | 0.26
COR-L23 | 0.286
COR-L 105 | 0.365
LC-2-ad | 0.491
LXF-289 | 0.556
ChaGo-K-1 | 0.905
NCI-H2170 | 0.368
NCI-H322M | 0.412
HCC-78 | 0.433
SW 900 | 0.552
NCI-H1648 | 0.249

Same assay, conditions: first compound 1 µM

Cell Line | relative viability
NCI-H522 | 0.968
PC-14 | 0.437
NCI-H1666 | 0.656
NCI-H1755 | 0.448
NCI-H2023 | 0.33
EPLC-272H | 0.318
LCLC-97TM1 | 0.212
PC-3 [JPC-3] | 0.517
LOU-NH91 | 0.519
NCI-H647 | 0.269
NCI-H23 | 0.413
EMC-BAC-2 | 0.486
NCI-H2126 | 0.336
HCC-44 | 0.919
NCI-H1734 | 0.318
NCI-H650 | 0.303
LK-2 | 0.688
NCI-H2228 | 0.746
NCI-H2342 | 0.52
SK-MES-1 | 0.286
HARA | 0.272
COR-L23 | 0.282
